Columns and labels:
ISC-enriched organoids [1] = assay: Primary screen, 384-well 2.5-D organoid differentiation (ENR+CD, 6 days, Target Selective Inhibitor Library, vs whole-plate median): ATP (CellTiter-Glo 3D, CTG); conditions: primary screen; for Dose.FC.CTG: ENR+CD 6 days, FC vs plate median; for Z.CTG: standard z score of FC
ISC-enriched organoids [2] = assay: Primary screen, 384-well 2.5-D organoid differentiation (ENR+CD, 6 days): carbachol-induced lysozyme secretion (LYZ.S); type: cell-based, murine; conditions: primary screen, ENR+CD 6 days, FC vs plate median
Source text: (§1) High-throughput screening.

ISC-enriched organoids [3] = assay: Primary screen, 384-well 2.5-D organoid differentiation (ENR+CD, 6 days): basal lysozyme secretion (LYZ.NS); type: cell-based, murine; conditions: primary screen; for Dose.FC.LYZ.NS: ENR+CD 6 days, FC vs plate median; for Z.LYZ.NS: standard z score of FC
Source text: as §1

Structure (SMILES) | Dose.FC.CTG (ISC-enriched organoids [1]; dose 0.08 uM) | Z.CTG (ISC-enriched organoids [1]; dose 0.08 uM) | Dose.FC.CTG (ISC-enriched organoids [1]; dose 0.40 uM) | Z.CTG (ISC-enriched organoids [1]; dose 0.40 uM) | Dose.FC.CTG (ISC-enriched organoids [1]; dose 2.00 uM) | Z.CTG (ISC-enriched organoids [1]; dose 2.00 uM) | Dose.FC.CTG (ISC-enriched organoids [1]; dose 10.00 uM) | Z.CTG (ISC-enriched organoids [1]; dose 10.00 uM) | Dose.FC.LYZ.S (ISC-enriched organoids [2]; dose 0.08 uM) | Dose.FC.LYZ.S (ISC-enriched organoids [2]; dose 0.40 uM) | Dose.FC.LYZ.S (ISC-enriched organoids [2]; dose 2.00 uM) | Dose.FC.LYZ.S (ISC-enriched organoids [2]; dose 10.00 uM) | Dose.FC.LYZ.NS (ISC-enriched organoids [3]; dose 0.08 uM) | Z.LYZ.NS (ISC-enriched organoids [3]; dose 0.08 uM) | Dose.FC.LYZ.NS (ISC-enriched organoids [3]; dose 0.40 uM) | Z.LYZ.NS (ISC-enriched organoids [3]; dose 0.40 uM) | Dose.FC.LYZ.NS (ISC-enriched organoids [3]; dose 2.00 uM) | Z.LYZ.NS (ISC-enriched organoids [3]; dose 2.00 uM) | Dose.FC.LYZ.NS (ISC-enriched organoids [3]; dose 10.00 uM) | Z.LYZ.NS (ISC-enriched organoids [3]; dose 10.00 uM)
CN(C)Cc1ccc(-c2nc3cccc4c3n2CCNC4=O)cc1 [AG-14361] | −0.012 log 2 fold change | −0.028 | −0.069 log 2 fold change | −0.165 | 0.005 log 2 fold change | 0.012 | −0.021 log 2 fold change | −0.050 | 0.100 log 2 fold change | −0.001 log 2 fold change | −0.065 log 2 fold change | −0.189 log 2 fold change | 0.152 log 2 fold change | 1.324 | 0.036 log 2 fold change | 0.312 | 0.032 log 2 fold change | 0.278 | −0.197 log 2 fold change | −1.713
CN1CCCCC1Cn1cc(C(=O)c2cc([N+](=O)[O-])ccc2I)c2ccccc21 (stereo not shown) [AM1241] | 0.159 log 2 fold change | 0.379 | −0.054 log 2 fold change | −0.129 | −0.062 log 2 fold change | −0.147 | −0.001 log 2 fold change | −0.002 | 0.046 log 2 fold change | 0.088 log 2 fold change | −0.017 log 2 fold change | −0.080 log 2 fold change | 0.052 log 2 fold change | 0.454 | 0.004 log 2 fold change | 0.035 | −0.014 log 2 fold change | −0.123 | −0.003 log 2 fold change | −0.028
O=C1NC(=O)/C(=C/c2ccc(-c3ccc(F)cc3O)o2)S1 [AS-252424] | 0.139 log 2 fold change | 0.333 | −0.074 log 2 fold change | −0.176 | −0.359 log 2 fold change | −0.858 | −0.204 log 2 fold change | −0.487 | 0.072 log 2 fold change | −0.008 log 2 fold change | −0.074 log 2 fold change | −0.022 log 2 fold change | 0.070 log 2 fold change | 0.609 | −0.042 log 2 fold change | −0.368 | −0.080 log 2 fold change | −0.695 | −0.077 log 2 fold change | −0.671
Cc1cc2c(C(C)C)c(O)c(O)c(C=O)c2c(O)c1-c1c(C)cc2c(C(C)C)c(O)c(O)c(C=O)c2c1O [AT101] | −0.198 log 2 fold change | −0.472 | 0.019 log 2 fold change | 0.044 | −0.216 log 2 fold change | −0.515 | −0.056 log 2 fold change | −0.133 | 0.004 log 2 fold change | −0.013 log 2 fold change | −0.085 log 2 fold change | −0.061 log 2 fold change | −0.049 log 2 fold change | −0.426 | −0.068 log 2 fold change | −0.592 | −0.036 log 2 fold change | −0.311 | −0.052 log 2 fold change | −0.452
CCNC(=O)c1noc(-c2cc(C(C)C)c(O)cc2O)c1-c1ccc(CN2CCOCC2)cc1 [AUY922 (NVP-AUY922)] | −1.185 log 2 fold change | −2.830 | −1.343 log 2 fold change | −3.208 | −1.137 log 2 fold change | −2.715 | −1.270 log 2 fold change | −3.032 | −0.209 log 2 fold change | −0.184 log 2 fold change | −0.216 log 2 fold change | −0.214 log 2 fold change | −0.144 log 2 fold change | −1.251 | −0.154 log 2 fold change | −1.343 | −0.138 log 2 fold change | −1.200 | −0.153 log 2 fold change | −1.330

Reference: US20230398130A1, “METHODS AND COMPOSITIONS FOR DIFFERENTIATING STEM CELLS” (Massachusetts Institute of Technology, priority 2020, published 2023)
